# Results published in BindingDB's records for doi:10.1074/jbc.M203194200 (Tanabe Seiyaku, 2002).
# pKi: −log10 of the molar value.
# Biological target: Oxoeicosanoid receptor 1 (Homo sapiens, UniProt Q8TDS5)
# Sequence (Q8TDS5 as listed by the source): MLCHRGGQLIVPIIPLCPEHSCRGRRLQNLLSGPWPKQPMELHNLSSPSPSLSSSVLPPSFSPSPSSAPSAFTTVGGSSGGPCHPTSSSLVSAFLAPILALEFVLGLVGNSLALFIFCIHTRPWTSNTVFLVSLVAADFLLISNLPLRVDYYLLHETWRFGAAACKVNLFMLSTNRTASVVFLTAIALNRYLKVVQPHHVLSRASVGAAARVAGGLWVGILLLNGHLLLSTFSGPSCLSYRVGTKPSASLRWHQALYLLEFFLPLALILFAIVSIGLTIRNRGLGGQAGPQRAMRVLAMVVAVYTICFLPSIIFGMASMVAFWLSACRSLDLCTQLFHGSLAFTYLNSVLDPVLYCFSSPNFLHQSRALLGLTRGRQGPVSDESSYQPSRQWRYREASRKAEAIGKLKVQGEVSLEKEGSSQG
row,pKi,SMILES
1,5.22,"CC/C=C\C/C=C\C/C=C\C/C=C\C/C=C\CCCC(=O)O [5,8,11,14,17-EICOSAPENTAENOIC ACID]"
2,5.43,"CCCCC/C=C\C/C=C\C/C=C\CCCCCCC(=O)O [(Z,Z,Z)-8,11,14-Eicosatrienoic acid]"
3,5.80,"CC/C=C\C/C=C\C/C=C\C/C=C\C/C=C\C/C=C\CCC(=O)O [all-cis-docosa-4,7,10,13,16,19-hexaenoic acid]"
